# According to patent US20230111066A1, “PIGMENTED SPOT FORMATION INHIBITOR, INCREASED MELANOSOME PHAGOCYTOSIS INHIBITOR, AND EPIDERMAL DIFFERENTIATION POTENCY IMPROVER” (SSP CO., LTD., priority 2021, published 2023):
# How the values were obtained:
# [1] = test system: normal human epidermal keratinocytes (NHEKs); experiment: Fluorescent bead (pseudo-melanosome) phagocytosis enhanced by UVB irradiation; assay type: cell-based
# Procedure: Test Example 1: Enhancement of Fluorescent Bead Phagocytosis by UVB Irradiation and Enhanced Phagocytosis-Inhibiting Effect by VB6 A culture medium (HuMedia-KG2: manufactured by Kurabo Industries Ltd.) was added to a 96-well plate at 0.1 mL/well, and normal human epidermal keratinocytes (NHEKs) were seeded at a density of 2.5×10^4 cells/well, followed by incubation for 24 hours. These cells were divided into first to fourth groups. In the first group (vitamin B6+UVB group), the medium was replaced by a pyridoxine-containing culture medium (pyridoxine: 1 mM), followed by culturing for 24 hours, and irradiation with 20 mJ/cm^2 of UVB using a UVB broadband lamp manufactured by Koninklijke Philips N.V. was performed, followed by culturing for 24 hours. In the second group (vitamin B6 group), the medium was replaced by a pyridoxine-containing culture medium (pyridoxine: 1 mM), followed by culturing for 24 hours. […] Subsequently, the NHEKs of each group were allowed to incorporate fluorescent beads (manufactured by Thermo Fisher Scientific Inc.) as pseudo-melanosomes for 4 hours, and the uptake amount of the fluorescent beads per unit protein was then measured with a microplate reader (manufactured by Tecan Group Ltd.).
# [2] = test system: gene expression levels of keratin-10, involucrin, and loricrin; experiment: Degradation of epidermal differentiation potency by fluorescent bead phagocytosis, real-time PCR; assay type: cell-based, human
# Procedure: Test Example 3: Effect of Improving Degradation of Epidermal Differentiation Potency by Fluorescent Bead Phagocytosis A culture medium (HuMedia-KG2) was added to a 96-well plate at 0.1 mL/well, and normal human epidermal keratinocytes (NHEKs) were seeded at a density of 2.5×10^4 cells/well, followed by incubation for 24 hours. These cells were divided into first to third groups. In the first group (vitamin B6+bead group), the medium was replaced by a pyridoxine-containing culture medium (pyridoxine: 1 mM), followed by culturing for 24 hours. The NHEKs were allowed to incorporate fluorescent beads (manufactured by Thermo Fisher Scientific Inc.) as pseudo-melanosomes for 4 hours, followed by further culturing in a fresh culture medium (HuMedia-KG2) for 20 hours. In the second group (bead group), after culturing for 24 hours, the NHEKs were allowed to incorporate fluorescent beads (manufactured by Thermo Fisher Scientific Inc.) as pseudo-melanosomes for 4 hours, followed by further culturing in a fresh culture medium (HuMedia-KG2) for 20 hours. In the third group (control group), the NHEKs were directly cultured for 48 hours. Subsequently, total RNA was extracted from the NHEKs of each group, and cDNA was produced by reverse transcription. Real-time PCR was performed using this cDNA as a template to detect gene expression levels of keratin-10, involucrin, and loricrin.
# [3] = test system: normal human epidermal keratinocytes (NHEKs); experiment: Fluorescent bead phagocytosis enhanced by BSO treatment; assay type: cell-based; conditions: 50 μM BSO, pyridoxine 0.25 mM, 0.5 mM, or 1 mM, FIG. 2
# Procedure: Test Example 2: Enhancement of Fluorescent Bead Phagocytosis by BSO Treatment and Enhanced Phagocytosis-Inhibiting Effect by VB6 A culture medium (HuMedia-KG2) was added to a 96-well plate at 0.1 mL/well, and normal human epidermal keratinocytes (NHEKs) were seeded at a density of 2.5×10^4 cells/well, followed by incubation for 24 hours. These cells were divided into first to fourth groups. In the first group (vitamin B6+BSO group), treatment with 50 μM of buthionine sulfoximine (BSO: manufactured by Sigma-Aldrich Co. LLC) was performed for 24 hours, and the medium was then replaced by a pyridoxine-containing culture medium (pyridoxine: 0.25 mM, 0.5 mM, or 1 mM), followed by culturing for 24 hours. In the second group (vitamin B6 group), the medium was replaced by a pyridoxine-containing culture medium (pyridoxine: 0.25 mM, 0.5 mM, or 1 mM), followed by culturing for 24 hours. In the third group (BSO group), treatment with 50 μM of buthionine sulfoximine (BSO) was performed for 24 hours, followed by culturing in a KG2 culture medium for 24 hours. […] Subsequently, the NHEKs of each group were allowed to incorporate fluorescent beads (manufactured by Thermo Fisher Scientific Inc.) for 4 hours, and the uptake amount of the fluorescent beads per unit protein was then measured with a microplate reader (manufactured by Tecan Group Ltd.).
Compound,"effect on increase in melanosome phagocytosis, summary statement on the Examples ([1]; general statement covering Test Examples 1 and 2)","effect on epidermal differentiation potency, summary statement on the Examples ([2]; general statement covering Test Example 3)","effect on increase in melanosome phagocytosis (uptake amount of fluorescent beads per unit protein) ([1]; NHEKs, pyridoxine 1 mM, 20 mJ/cm^2 UVB, FIG. 1)","effect on epidermal differentiation potency (gene expression of keratin-10, involucrin, loricrin) ([2]; NHEKs, pyridoxine 1 mM, fluorescent beads 4 hours, FIG. 3)",effect on increase in melanosome phagocytosis (uptake amount of fluorescent beads per unit protein) [3]
vitamin B6,excellent effects of inhibiting an increase in melanosome phagocytosis,improving epidermal differentiation potency,–,–,–
Cc1ncc(CO)c(CO)c1O [pyridoxine],–,–,inhibiting an increase in melanosome phagocytosis,improving epidermal differentiation potency,inhibiting an increase in melanosome phagocytosis
